Patent publication US4980377A, “1-(aminophenyl)-2-aminopropanone derivatives” (Laboratoire L. Lafon, priority 1984, dated 1990)
“Also recorded” adds a separate entry of the source. Counter-ions that a name gives are not always drawn.

Columns and labels:
mice [1] = assay: Interaction with apomorphine in mice; format: in vivo, mouse; conditions: i.p.
Method: Groups of 6 mice receive CRL 41 153 0.5 hour before the subcutaneous injection of 1 or 16 mg/kg of apomorphine.

[2] = pH of solutions in distilled water; format: physicochemical
Method: The neuropsychopharmacological study was undertaken according to the procedures described above for CRL 41 153, CRL 41 213 being adminstered intraperitoneally, in solution in distilled water, in a volume of 20 ml/kg to male mice and a volume of 5 ml/kg to male rats, and the pH of the injected solution varying with the concentration of CRL 41 213 according to the data given in Table II below.

mice [3] = assay: Motility reduced by hypoxic aggression; format: in vivo, mouse; conditions: i.p.
Method: Half an hour after they have received CRL 41 153, the mice (10 per dose, 20 control animals) are subjected to acute hypobaric anoxia [pressure reduction of 600 mm Hg (i.e. about 8×10^4 Pa) in 90 seconds; release of vacuum in 45 seconds] and are then placed in an actimeter, where their motility is recorded for 10 minutes.

mice [4] = assay: Interaction with barbital; format: in vivo, mouse; conditions: i.p., barbital 220 mg/kg
Method: Half an hour after the administration of CRL 41 153, groups of 10 mice receive an intraperitoneal injection of barbital (220 mg/kg).

mice [5] = assay: Spontaneous motility; format: in vivo, mouse; conditions: i.p.
Method: 0.5 hour after they have received CRL 41 153, the mice (6 per dose, 12 control animals) are placed in an actimeter, where their motility is recorded for 30 minutes.

CNS = assay: Neuropsychopharmacological profile as a whole; format: in vivo, mice and rats
Method: (§1) In the neuropsychopharmacological study which follows, a solution of CRL 41 153 in distilled water (pH 1.5) was administered intraperitoneally in a volume of 20 ml/kg to male mice and 5 ml/kg to male rats.

mice [6] = assay: Interaction with oxotremorine; format: in vivo, mouse; conditions: i.p.
Method: CRL 41 153 is administered to groups of 6 mice 0.5 hour before the intraperitoneal injection of 0.5 mg/kg of oxotremorine.

[7] = tested on: gravid White New Zealand female rabbits; assay: Teratogenicity in gravid White New Zealand rabbits; format: in vivo, rabbit; conditions: 50 mg/kg daily, day 5 to day 18 of gestation
Method: The protocol used comprised administering to gravid White New Zealand female rabbits (weighing each about 2900-3000 grams before gestation) a daily dose of 0 (batch of control animals), 5,10 or 50 mg/kg of each product to be tested by gastrogavage from day 5 to day 18 of gestation, then carrying out a cesarean operation on day 29 of gestation in order to enumerate:
(i) the total number of foestuses, and
(ii) the total number of foestuses presenting at least one malformation.
To appreciate the results of such a protocol it must be noted that natural malformations may occur. Statistically, the percentage of foetuses presenting at least one malformation in any control batch of gravid White New Zealand female rabbits is lower than or equal to 1.5% with respect to the total number of foetuses.
To be precise in this protocol a malformation comprises at least one of the following cases: articular limb blocade, anorous foetus, deviated tail, shorter tail, skull deformation, exemcephalia.

mice [8] = assay: Four plate test, traction and electric shock; format: in vivo, mouse; conditions: i.p.
Method: The test is performed on groups of 10 mice 30 minutes after the administration of CRL 41 153.

rats [9] = assay: Overall behavior and reactivities in rats; format: in vivo, rat; conditions: dose not stated
Method: as §1
(§2) Groups of three animals are observed before and then 0.25 hour, 0.50 hour, 1 hour, 2 hours, 3 hours and 24 hours after the administration of CRL 41 153.

mice [10] = assay: Overall behavior and reactivities in mice; format: in vivo, mouse; conditions: dose not stated
Method: as §1, §2

mice [11] = assay: Interaction with reserpine; format: in vivo, mouse; conditions: i.p.
Method: Four hours after the intraperitoneal injection of 2.5 mg/kg of reserpine, groups of 6 mice receive CRL 41 153.

rats [12] = assay: Interaction with amphetamine; format: in vivo, rat; conditions: i.p.
Method: Amphetamine (2 mg/kg) is injected intraperitoneally into groups of 6 rats 30 minutes after the administration of CRL 41 153. […] 4 mg/kg and 16 mg/kg, CRL 41 153 potentiates the intensity and duration of the stereotypies induced by amphetamine.

rats [13] = assay: Interaction with apomorphine in rats; format: in vivo, rat; conditions: i.p.
Method: CRL 41 153 is administered to groups of 6 rats 0.5 hour before the subcutaneous injection of 0.5 mg/kg of apomorphine.

mice [14] = assay: Motility reduced by habituation to the enclosure; format: in vivo, mouse; conditions: i.p.
Method: After they have stayed In the actimeters for 18 hours, (he mice (6 per dose, 12 control animals) receive CRL 41 153. They are immediately returned to their respective enclosures and, half an hour later, their motility is recorded for 30 minutes.

mice [15] = assay: Behavioral despair; format: in vivo, mouse; conditions: forcibly immersed mice, i.p.
Source text: Half an hour after they have received CRL 41 153, groups of 6 mice are placed in a beaker filled with water to a height of 6 cm. The total period of immobility between the 2nd and 6th minutes following immersion is noted.

CNC(C)C(=O)c1ccc(N)cc1 (stereo not shown) [CRL 41 218, 1-4-aminophenyl)-2-methylaminopropanone dihydrochloride]
Effect on hypothermia induced by apomorphine (mice [1]): antagonism of the hypothermia | pH ([2]; 6 g/liter in distilled water): 5.0 | pH ([2]; 13 g/liter in distilled water): 4.5 | pH ([2]; 50 g/liter in distilled water): 4.0 | pH ([2]; ≤3 g/liter in distilled water): 5.5 | Motor recovery of mice after hypobaric hypoxia (mice [3]): improvement in the motor recovery | Duration of the sleep induced by barbital (mice [4]): distinct antagonism of the sleep induced by barbital | Spontaneous motor activity (mice [5]): increase in the motor activity | Anticonvulsant effects (overall) (CNS; conclusion of the tests): anticonvulsant effects | Antidepressant effects (overall) (CNS; conclusion of the tests): antidepressant effects | Stimulant effects (overall) (CNS; conclusion of the tests): stimulant effects | α-adrenergic stimulant effects (overall) (CNS; conclusion of the tests): α-adrenergic stimulant effects | Peripheral α-adrenergic signs (mydriasis, salivation, lacrimation, exophthalmos) (CNS; species and dose not stated, dihydrochloride): mydriasis; also recorded: salivation | Effect on hypothermic action of oxotremorine (mice [6]): antagonism of the hypothermia | Affected foetuses, number [7]: 1 | Total foetuses (live) [7]: 79 | Affected foetuses, % ([7]; normal limit 1.5%): 1.26% | Effect on convulsant effects of electric shock (mice [8]): antagonism, at strong doses, of the convulsant effects of electric shock | Overall behavior: observed effects (summary) (rats [9]): excitation in mice and rats | Stereotype movements (summary) (rats [9]): presence of stereotype movements | Overall behavior: observed effects (summary) (mice [10]): excitation in mice and rats | Stereotype movements (summary) (mice [10]): presence of stereotype movements | Effect on hypothermia induced by reserpine (mice [11]): antagonism of the hypothermia | Effect on ptosis induced by reserpine (mice [11]): antagonism of the ptosis induced by reserpine | Effect on stereotypies induced by amphetamine (rats [12]): potentiation of the stereotypies | Effect on stereotypies induced by apomorphine (rats [13]): potentiation of the stereotypies | Motor activity of mice accustomed to their enclosure (mice [14]): resumption in the motor activity of mice accustomed to their enclosure | Period of immobility due to despair (mice [15]): a reduction in the period of immobility
